From patent publication US9353100B2, “Macrocyclic serine protease inhibitors, pharmaceutical compositions thereof, and their use for treating HCV infections” (Idenix Pharmaceuticals LLC, priority 2011, dated 2016)

What was measured:
HCV NS3-NS4A protease 3a = biological target: T1, HCV NS3-NS4A protease 3a (Hepatitis C virus genotype 3a, UniProt Q81258); experiment: HCV protease assay (FRET peptide), genotype 3a; assay type: biochemical
T1 construct: HCV NS3-NS4A protease, which was produced according to the method of Taremi et al; made in house
Procedure: (§1) General procedure: Measurement of the inhibitory effect of compounds on HCV protease activity was performed using the HiLyte Fluor™ TR/QXL™ 610 FRET peptide from AnaSpec, Inc. (San Jose, Calif.) under conditions developed in-house using 2-3 nM HCV NS3-NS4A protease, which was produced according to the method of Taremi et al. (Protein Science, 1998, 7, 2143-2149). The compounds were tested at a variety of concentrations in assay buffer containing a final DMSO concentration of 5%. Reactions were allowed to proceed for 60 min at 30° C. and fluorescence measurements were recorded with a PerkinElmer Victor^3 V 1420 Multilabel Counter. The IC50 values were determined from the percent inhibition versus concentration data using a sigmoidal non-linear regression analysis based on four parameters with XLfit 4.1 software.

[1] = test system: HCV genotype 1a H77 strain subgenomic luciferase replicon (H1a-luc) in Huh-7 cells; experiment: HCV luciferase replicon assay, genotype 1a (H1a-luc); assay type: cell-based; settings: for FS (1a/1b): EC50 against genotype 1a HCV divided by EC50 against genotype 1b, replicon luciferase assay; for EC50: Hepatitis C virus, genotype 1a H77 replicon, Huh-7 (H1a-luc), 72 hours, read-out: EC50 Against Relpicon 1a
Procedure: (§2) General procedure: The HCV luciferase replicon assay measures the ability of a test compound to inhibit HCV replication in cell culture after 3 days of treatment in a human hepatoma cell line (Huh-7) bearing a HCV replicon containing a luciferase-neomycin phosphotransferase fusion gene. The inhibition of HCV replication was measured by quantification of luciferase protein expression. Briefly, Huh-7 cells containing either the HCV genotype 1a H77 strain or genotype 1b Con1 strain subgenomic luciferase replicon (H1a-luc or Zluc, respectively) were grown in DMEM containing glucose, L-glutamine and sodium pyruvate, 10% fetal bovine serum (FBS), 100 IU/mL penicillin, 100 μg/mL streptomycin, 2 mM GlutaMAX, non-essential amino acids and 0.25 (H1a-luc) or 0.5 (Zluc) mg/mL G418. GlutaMAX was obtained from Invitrogen, Corp.; all other media reagents were obtained from Mediatech, Inc. For dose-response testing, the cells were seeded in 96-well plates at 1×10^4 (H1a-luc) or 7.5×10^3 (Zluc) cells/well in a volume of 50 μL and incubated at 37° C./5% CO2. Three hours after plating, 50 μL of ten 5-fold serial dilutions of compound were added, and cell cultures were incubated at 37° C./5% CO2 for 72 hours. In all cases, Huh-7 cells lacking the HCV replicon served as negative control. To assess luciferase expression, the media/compound was removed from the plates and ONE-glo Luciferase assay reagent (Promega) was added to each well. The assay plates were shaken for 3 minutes at room temperature and luciferase activity for each well was measured with a 1 sec read time on the Victor^3V multilabel counter using a 700 nm cut-off filter (Perkin Elmer). EC50 values were calculated from dose response curves from the resulting best-fit equations determined by Microsoft Excel and XLfit 4.1 software.

[2] = test system: HCV genotype 1b Con1 strain subgenomic luciferase replicon (Zluc) in Huh-7 cells; experiment: HCV luciferase replicon assay, genotype 1b (Zluc); assay type: cell-based; settings: Hepatitis C virus; genotype 1b Con1 replicon, Huh-7 (Zluc), 72 hours; read-out: EC50 Against Relpicon 1b
Procedure: as §2

[3] = Cytotoxicity evaluation, Cell Titer 96 AQueous One Solution; assay type: cell-based, human; settings: human; Zluc cells, cellular viability
Procedure: For cytotoxicity evaluation, Zluc cells were treated with compounds as described above and cellular viability was monitored using the Cell Titer 96 AQueous One Solution Cell Proliferation Assay (Promega). Plates were then read at 490 nm in a Victor^3V 1420 multilabel counter (Perkin Elmer) and CC50 concentrations were determined using Microsoft Excel and XLfit 4.1 software.

HCV NS3-NS4A protease 1b = biological target: T2, HCV NS3-NS4A protease 1b (Hepatitis C virus genotype 1b, UniProt Q9WMX2); experiment: HCV protease assay (FRET peptide), genotype 1b; assay type: biochemical
T2 construct: HCV NS3-NS4A protease, which was produced according to the method of Taremi et al; made in house
Procedure: as §1

T2 sequence (Q9WMX2 1658-1711): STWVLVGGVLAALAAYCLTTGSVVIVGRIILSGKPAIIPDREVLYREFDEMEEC
T2 sequence (Q9WMX2 1027-1208): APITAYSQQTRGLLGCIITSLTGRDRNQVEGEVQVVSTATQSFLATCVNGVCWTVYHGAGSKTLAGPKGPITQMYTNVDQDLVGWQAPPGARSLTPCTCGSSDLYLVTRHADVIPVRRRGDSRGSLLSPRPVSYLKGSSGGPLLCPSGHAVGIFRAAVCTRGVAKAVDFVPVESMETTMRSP
T1 sequence (Q81258 1664-1717): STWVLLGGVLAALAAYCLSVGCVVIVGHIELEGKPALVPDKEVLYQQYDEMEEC
T1 sequence (Q81258 1033-1214): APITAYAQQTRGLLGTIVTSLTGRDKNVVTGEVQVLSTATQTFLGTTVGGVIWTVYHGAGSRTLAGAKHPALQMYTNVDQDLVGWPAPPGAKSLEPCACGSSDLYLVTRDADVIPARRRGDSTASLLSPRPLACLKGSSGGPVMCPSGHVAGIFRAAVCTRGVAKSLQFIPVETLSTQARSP

SMILES | IC50 (HCV NS3-NS4A protease 3a) [nM] | FS (1a/1b) [1] | EC50 [1] [nM] | EC50 [2] [nM] | CC50 [3] [µM] | IC50 (HCV NS3-NS4A protease 1b) [nM]
CC(C)c1csc(-c2cc(O[C@H]3CC[C@H]4C(=O)N(C)CCCC/C=C\[C@@H]5C[C@@]5(C(=O)NS(=O)(=O)C5(C)CC5)NC(=O)[C@@H]4C3)nc(-c3nc(C(F)(F)F)cs3)n2)n1 [Compound C103, (1R,4R,6R,15R,18S)-1-methyl-cyclopropanesulfonic acid {18-[6-(4-isopropyl-thiazol-2-yl)-2-(4-trifluoromethyl-thiazol-2-yl)-pyrimidin-4-yloxy]-13-methyl-2,14-dioxo-3,13-diaza-tricyclo[13.4.0.0]nonadec-7-ene-4-carbonyl}-amide] | < 10 | 6 | < 10 | < 10 | > 10 | < 10
Cc1csc(-c2cc(O[C@H]3CC[C@H]4C(=O)N(C)CCCC/C=C\[C@@H]5C[C@@]5(C(=O)NS(=O)(=O)C5(C)CC5)NC(=O)[C@@H]4C3)cc(-c3nc(C(F)(F)F)cs3)n2)n1 [Compound C102, (1R,4R,6R,15R,18S)-1-methyl-cyclopropanesulfonic acid {13-methyl-18-[2-(4-methyl-thiazol-2-yl)-6-(4-trifluoromethyl-thiazol-2-yl)-pyridin-4-yloxy]-2,14-dioxo-3,13-diaza-tricyclo[13.4.0.0]nonadec-7-ene-4-carbonyl}-amide] | < 10 | 5 | < 10 | < 10 | > 10 | < 10
CN1CCCC/C=C\[C@@H]2C[C@@]2(C(=O)NS(=O)(=O)C2(C)CC2)NC(=O)[C@@H]2C[C@@H](Oc3nc(-c4cccc(C(F)(F)F)c4)sc3-c3ccccc3)CC[C@H]2C1=O [Compound D101, (1R,4R,6R,15R,18S)-1-methyl-cyclopropanesulfonic acid {13-methyl-2,14-dioxo-18-[5-phenyl-2-(3-trifluoromethyl-phenyl)-thiazol-4-yloxy]-3,13-diaza-tricyclo[13.4.0.0]nonadec-7-ene-4-carbonyl}-amide] | 10 to 100 | 147 | 1000 to 10000 | 10 to 100 | > 10 | 10 to 100
CN1CCCC/C=C\[C@@H]2C[C@@]2(C(=O)NS(=O)(=O)C2(C)CC2)NC(=O)[C@@H]2C[C@@H](Oc3cc(-c4nc(C(F)(F)F)cs4)nc(-c4nc(C(F)(F)F)cs4)n3)CC[C@H]2C1=O [Compound C104, (1R,4R,6R,15R,18S)-1-methyl-cyclopropanesulfonic acid {18-[2,6-bis(4-trifluoromethyl-thiazol-2-yl)-pyrimidin-4-yloxy]-13-methyl-2,14-dioxo-3,13-diaza-tricyclo[13.4.0.0]nonadec-7-ene-4-carbonyl}-amide] | 10 to 100 | 5 | < 10 | < 10 | > 10 | < 10
